Here are results for one molecule from publication PMC3260207, “Site-Directed Mutations and the Polymorphic Variant Ala160Thr in the Human Thromboxane Receptor Uncover a Structural Role for Transmembrane Helix 4” (PLoS ONE, 2012).

Numbering of substitutions follows the chain as printed.

Assay [1] deals with T1, TP A160T mutant (nsSNP variant) (Homo sapiens, UniProt P21731, A160T).
T1 construct: expressed in transfected cells; HEK293T (calcium assays)
T1 sequence (P21731 1-343 A160T): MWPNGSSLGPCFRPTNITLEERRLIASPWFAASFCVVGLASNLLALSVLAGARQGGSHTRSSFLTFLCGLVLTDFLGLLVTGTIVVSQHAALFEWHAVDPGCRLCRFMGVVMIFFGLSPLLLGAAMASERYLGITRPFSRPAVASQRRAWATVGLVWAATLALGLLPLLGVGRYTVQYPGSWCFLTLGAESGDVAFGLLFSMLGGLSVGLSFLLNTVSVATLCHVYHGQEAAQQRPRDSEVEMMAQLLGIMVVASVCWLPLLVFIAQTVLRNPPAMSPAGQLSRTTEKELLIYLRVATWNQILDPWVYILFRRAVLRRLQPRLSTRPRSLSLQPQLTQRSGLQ
The assay is described as follows: Heterologous competition binding, unlabeled U46619 against 4 nM [3H] SQ 29,548. The settings on record: read-out: Ki of agonist U46619, 4 nM [3H] SQ 29,548, 2 hr room temperature, Cheng-Prusoff from IC50. As for the experimental part:
(§1) Amino acid substitutions were introduced into the synthetic TPα gene carried by the expression vector pMT4 as described previously, [29]. DNA sequences of all the mutated genes were verified by automated DNA sequencing. To minimize variations in transfection efficiency, the total amount transfected DNA was kept constant in all cases at 1 µg of DNA per 7×10^5 cells. The wild type TP or mutant genes were expressed in COS-1 cells using a DEAE-dextran based transient transfection method, [29], and in HEK293T cells using lipofectamine 2000 (Invitrogen). Except unless specified, the membranes prepared from COS-1 cells were used for radioligand binding assays and immunoblots. For intracellular calcium determination assays and immunofluorescence imaging, HEK293T cells were used. For transient transfections of HEK293T cells using the plasmid pMT4, lipofectamine 2000 (Invitrogen) mediated transfection was used as described by the manufacturer. Membranes were prepared using Buffers A and B and as described previously, [29]. The protein concentration in the resuspended membrane pellet was determined using a modified DC protein assay kit from Bio-Rad Laboratories (Hercules, CA).
(§2) These were carried out in Buffer C for 60 min at room temperature, using 2 to 20 µg of membrane protein and different concentrations of [^3H] […] Binding of [^3H] […] Competition binding assays were performed using 4 nM [^3H] […] Binding was terminated by filtering under vacuum on GF/A filters (Millipore). Filter-bound radioactivity was measured using a liquid scintillation counter. Equilibrium dissociation constants (Kd) were determined from saturation isotherms using PRISM software version 5.0 (GraphPad Software Inc, San Diego, CA, USA). The Ki values were calculated from the IC50, using the equation of Cheng and Prusoff by PRISM software version 5.0. Where applicable, statistical significance of the data was evaluated using analysis of variance (ANOVA) and/or unpaired t test.

The target in the next assay is T2, TP A160V mutant (Homo sapiens, UniProt P21731, A160V).
T2 construct: expressed in transfected cells; HEK293T (calcium assays)
T2 sequence (P21731 1-343 A160V): T1 sequence (P21731 1-343 A160T) with T160V
The assay is described as above. The settings on record: read-out: Ki of agonist U46619, 4 nM [3H] SQ 29,548, 2 hr room temperature, Cheng-Prusoff from IC50. The method, then: as §1, §2

In another assay the target is T3, TP V110A mutant (Homo sapiens, UniProt P21731, V110A).
T3 construct: expressed in transfected cells; HEK293T (calcium assays)
T3 sequence (P21731 1-343 V110A): T1 sequence (P21731 1-343 A160T) with V110A, T160A
Kind of assay: Intracellular calcium mobilization (Fluo-4NW) in transfected HEK293T cells. It is filed as cell-based. Particulars: read-out: EC50 of agonist U46619 (calcium mobilized), transiently transfected HEK293T cells, mean ± S.E. The method, then: as §1
(§3) Changes in intracellular calcium were measured by using the fluorescent calcium sensitive dye Fluo-4NW (Invitrogen). After 6–8 hours of transient transfection of HEK293T cells using lipofectamine 2000, 100,000 viable cells were plated into each well of a 96-well tissue culture treated BD-falcon optilux plates. Cells mock transfected with vector pMT4 alone were used as a negative control. Following 24 hours of incubation at 37°C, the media was removed and cells were incubated with the dye Fluo-4NW (Invitrogen) containing 77 µg/ml of probenecid for 1 hour, as recommended by the manufacturer. […] Dose–response curves were generated and EC50 values calculated by nonlinear regression analysis using PRISM software version 5.0 (GraphPad Software Inc, San Diego, CA) after subtracting the responses of mock-transfected cells stimulated with same concentrations of agonists.
(In general: Calcium flux is commonly read through the fluorescence of an indicator in the cells.)

For the next assay, the target named is T4, TP G164V mutant (Homo sapiens, UniProt P21731, G164V).
T4 construct: expressed in transfected cells; HEK293T (calcium assays)
T4 sequence (P21731 1-343 G164V): T1 sequence (P21731 1-343 A160T) with T160A, G164V
The assay is described as above. It is filed as cell-based. The settings on record: read-out: EC50 of agonist U46619 (calcium mobilized), transiently transfected HEK293T cells, mean ± S.E. As for the experimental part:
as §1, §3

As to `CCCCC[C@H](O)/C=C/[C@@H]1[C@@H](C/C=C\CCCC(=O)O)[C@H]2CO[C@@H]1C2` [U46619], the figures for the inhibition constant Ki (in assay [1]; on TP A160V mutant) were 720 nM and 1510 nM, respectively. Moreover, the values for the concentration for a half-maximal effect (EC50) at TP V110A mutant and at TP G164V mutant were 2.7 ± 0.2 nM and 38 ± 2.1 nM, respectively.

The term Ki denotes a dissociation constant, usually derived from enzyme kinetics or from competition with a known ligand. A word on the EC50: it is the concentration needed to bring the measured effect to its halfway point.
